What was measured:
Format in all cases: cell-based
ERα = target: T1, ERα (Homo sapiens, UniProt P03372); assay: ER degradation in MCF-7 cells (Western blot); details: for DC50: ER degradation, 24 hours; for Dmax: MCF7, Maximal ER degradation, read-out: Dmax
T1 construct: endogenous in cells; host or cells: MCF-7
T1 sequence (P03372 1-595): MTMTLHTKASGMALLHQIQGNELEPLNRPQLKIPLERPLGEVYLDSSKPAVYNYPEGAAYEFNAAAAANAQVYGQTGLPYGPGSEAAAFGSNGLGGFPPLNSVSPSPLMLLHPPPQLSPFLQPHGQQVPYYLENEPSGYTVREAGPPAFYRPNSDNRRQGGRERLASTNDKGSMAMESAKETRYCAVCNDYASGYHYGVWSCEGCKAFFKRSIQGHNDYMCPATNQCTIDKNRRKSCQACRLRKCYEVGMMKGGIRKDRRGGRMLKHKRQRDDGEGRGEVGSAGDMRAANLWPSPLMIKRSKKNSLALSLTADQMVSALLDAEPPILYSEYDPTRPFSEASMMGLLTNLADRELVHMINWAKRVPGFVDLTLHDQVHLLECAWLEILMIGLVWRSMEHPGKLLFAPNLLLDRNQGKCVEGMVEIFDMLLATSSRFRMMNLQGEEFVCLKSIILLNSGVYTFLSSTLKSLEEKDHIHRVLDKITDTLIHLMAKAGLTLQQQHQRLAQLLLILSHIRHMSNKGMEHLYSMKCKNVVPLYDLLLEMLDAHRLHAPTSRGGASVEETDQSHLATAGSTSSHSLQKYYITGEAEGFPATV
Summary of the method: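 ERα levels assessed by Western blot (50 μg lysate protein, infrared scanner) after 24-hour exposure of MCF-7 cells to varied compound concentrations. Values reported as DC50, the concentration halving ER expression, and Dmax, the maximal ER reduction achieved across tested concentrations.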

ER = target: T2, ER (Homo sapiens, UniProt P03372); assay: ER antagonism (T47D ERE luciferase), T47d-kb-Luc cells; details: read-out: IC50 (ER antagonistm)
T2 construct: endogenous in cells; host or cells: T47d-kb-Luc (T47D stably transfected with a luciferase reporter gene only)
T2 sequence (P03372 1-595): T1 sequence (P03372 1-595)
Summary of the method: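 Five sample concentrations, each in quadruplicate and repeated in at least three experiments, were tested for blocking of estradiol activity. Values were expressed relative to the estradiol control. The cell system was the T47d-kb-Luc stable breast cancer line.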

[1] = test system: MCF-7 breast cancer cells; assay: MCF-7 proliferation / cell viability assay; details: Homo sapiens, MCF7; MCF-7 proliferation with 0.1 nM 17-beta estradiol; read-out: IC50 (anti-proliferation)
Summary of the method: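 Survival ratio, with vehicle (DMSO) as 100%, was derived from Coulter-counted viable cell numbers. Cells were grown in 5% FBS DMEM and dosed for 5 days across six concentrations between 10^−10 M and 10^−5 M.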

DC50 (ERα) [nM] | Dmax (ERα) [%] | IC50 (ER) [nM] | IC50 [1] [nM] | Structure (SMILES)
< 10 | > 90 | < 10 | < 10 | CC/C(=C(/c1ccc(B(O)O)cc1)c1ccc(N2CCN(CCC3CCN(c4ccc5c(c4)CN(C4CCC(=O)NC4=O)C5=O)CC3)CC2)cc1)c1ccccc1 (stereo not shown) [Compound 68, (E)-(4-(1-(4-(4-(2-(1-(2-(2,6-dioxopiperidin-3-yl)-1-oxoisoindolin-5-yl)piperidin-4-yl)ethyl)piperazin-1-yl)phenyl)-2-phenylbut-1-en-1-yl)phenyl)boronic acid]
< 10 | > 90 | < 10 | < 10 | CC/C(=C(/c1ccc(OCCN2CCN(CC3CCN(c4ccc5c(c4)CN([C@@H]4CCC(=O)NC4=O)C5=O)CC3)CC2)cc1)c1ccc(B(O)O)cc1)c1ccccc1 [Compound 70]
< 10 | > 90 | < 10 | < 10 | CC/C(=C(\c1ccc(OCCN2CCN(CC3CCN(c4ccc5c(c4)CN([C@H]4CCC(=O)NC4=O)C5=O)CC3)CC2)cc1)c1ccc(B(O)O)cc1)c1ccccc1 [Compound 71]
< 10 | > 90 | < 10 | < 10 | CC/C(=C(\c1ccc(OCCN2CCN(CC3CCN(c4ccc5c(c4)CN([C@@H]4CCC(=O)NC4=O)C5=O)CC3)CC2)cc1)c1ccc(B(O)O)cc1)c1ccccc1 [Compound 72]
< 10 | > 90 | < 10 | < 10 | CC/C(=C(/c1ccc(OCCN2CCC(CN3CCN(c4ccc5c(c4)CN([C@H]4CCC(=O)NC4=O)C5=O)CC3)CC2)cc1)c1ccc(B(O)O)cc1)c1ccccc1 [Compound 73, (S,Z)-(4-(1-(4-(2-(4-((4-(2-(2,6-dioxopiperidin-3-yl)-1-oxoisoindolin-5-yl)piperazin-1-yl)methyl)piperidin-1-yl)ethoxy)phenyl)-2-phenylbut-1-en-1-yl)phenyl)boronic acid]
< 10 | > 90 | < 10 | < 10 | CC/C(=C(/c1ccc(OCCN2CCC(CN3CCN(c4ccc5c(c4)CN([C@@H]4CCC(=O)NC4=O)C5=O)CC3)CC2)cc1)c1ccc(B(O)O)cc1)c1ccccc1 [Compound 74, (R,Z)-(4-(1-(4-(2-(4-((4-(2-(2,6-dioxopiperidin-3-yl)-1-oxoisoindolin-5-yl)piperazin-1-yl)methyl)piperidin-1-yl)ethoxy)phenyl)-2-phenylbut-1-en-1-yl)phenyl)boronic acid]
< 10 | > 90 | < 10 | < 10 | CC/C(=C(\c1ccc(OCCN2CCC(CN3CCN(c4ccc5c(c4)CN([C@H]4CCC(=O)NC4=O)C5=O)CC3)CC2)cc1)c1ccc(B(O)O)cc1)c1ccccc1 [Compound 75, (S,E)-(4-(1-(4-(2-(4-((4-(2-(2,6-dioxopiperidin-3-yl)-1-oxoisoindolin-5-yl)piperazin-1-yl)methyl)piperidin-1-yl)ethoxy)phenyl)-2-phenylbut-1-en-1-yl)phenyl)boronic acid]
< 10 | > 90 | < 10 | < 10 | CC/C(=C(\c1ccc(OCCN2CCC(CN3CCN(c4ccc5c(c4)CN([C@@H]4CCC(=O)NC4=O)C5=O)CC3)CC2)cc1)c1ccc(B(O)O)cc1)c1ccccc1 [Compound 76]
< 10 | > 90 | < 10 | < 10 | CC/C(=C(\c1ccc(O)cc1)c1ccc(OCCN2CCN(C(=O)N3CCN(c4ccc5c(c4)CN(C4CCC(=O)NC4=O)C5=O)CC3)CC2)cc1)c1ccccc1 (stereo not shown) [Compound 77]
< 10 | > 90 | < 10 | < 10 | CC/C(=C(\c1ccc(O)cc1)c1ccc(OCCN2CCN(C(=O)N3CCN(c4ccc5c(c4)CN([C@H]4CCC(=O)NC4=O)C5=O)CC3)CC2)cc1)c1ccccc1 [Compound 78, (S,Z)-3-(5-(4-(4-(2-(4-(1-(4-hydroxyphenyl)-2-phenylbut-1-en-1-yl)phenoxy)ethyl)piperazine-1-carbonyl)piperazin-1-yl)-1-oxoisoindolin-2-yl)piperidine-2,6-dione]
< 10 | > 90 | < 10 | < 10 | CC/C(=C(\c1ccc(O)cc1)c1ccc(OCCN2CCN(C(=O)N3CCN(c4ccc5c(c4)CN([C@@H]4CCC(=O)NC4=O)C5=O)CC3)CC2)cc1)c1ccccc1 [Compound 79, (R,Z)-3-(5-(4-(4-(2-(4-(1-(4-hydroxyphenyl)-2-phenylbut-1-en-1-yl)phenoxy)ethyl)piperazine-1-carbonyl)piperazin-1-yl)-1-oxoisoindolin-2-yl)piperidine-2,6-dione]
< 10 | > 90 | < 10 | < 10 | CC/C(=C(/c1ccc(O)cc1)c1ccc(OCCN2CCN(C(=O)N3CCN(c4ccc5c(c4)CN(C4CCC(=O)NC4=O)C5=O)CC3)CC2)cc1)c1ccccc1 (stereo not shown) [Compound 80, (E)-3-(5-(4-(4-(2-(4-(1-(4-hydroxyphenyl)-2-phenylbut-1-en-1-yl)phenoxy)ethyl)piperazine-1-carbonyl)piperazin-1-yl)-1-oxoisoindolin-2-yl)piperidine-2,6-dione]
< 10 | > 90 | < 10 | < 10 | CC/C(=C(/c1ccc(O)cc1)c1ccc(OCCN2CCN(C(=O)N3CCN(c4ccc5c(c4)CN([C@H]4CCC(=O)NC4=O)C5=O)CC3)CC2)cc1)c1ccccc1 [Compound 81, (S,E)-3-(5-(4-(4-(2-(4-(1-(4-hydroxyphenyl)-2-phenylbut-1-en-1-yl)phenoxy)ethyl)piperazine-1-carbonyl)piperazin-1-yl)-1-oxoisoindolin-2-yl)piperidine-2,6-dione]
< 10 | > 90 | < 10 | < 10 | CC/C(=C(/c1ccc(O)cc1)c1ccc(OCCN2CCN(C(=O)N3CCN(c4ccc5c(c4)CN([C@@H]4CCC(=O)NC4=O)C5=O)CC3)CC2)cc1)c1ccccc1 [Compound 82]
< 10 | > 90 | < 10 | < 10 | CC/C(=C(/c1ccc(OCCN2CCN(C(=O)N3CCN(c4ccc5c(c4)CN(C4CCC(=O)NC4=O)C5=O)CC3)CC2)cc1)c1ccc(B(O)O)cc1)c1ccccc1 (stereo not shown) [Compound 83, (Z)-(4-(1-(4-(2-(4-(4-(2-(2,6-dioxopiperidin-3-yl)-1-oxoisoindolin-5-yl)piperazine-1-carbonyl)piperazin-1-yl)ethoxy)phenyl)-2-phenylbut-1-en-1-yl)phenyl)boronic acid]
< 10 | > 90 | < 10 | < 10 | CC/C(=C(/c1ccc(OCCN2CCN(C(=O)N3CCN(c4ccc5c(c4)CN([C@H]4CCC(=O)NC4=O)C5=O)CC3)CC2)cc1)c1ccc(B(O)O)cc1)c1ccccc1 [Compound 84]
< 10 | > 90 | < 10 | < 10 | CC/C(=C(/c1ccc(OCCN2CCN(C(=O)N3CCN(c4ccc5c(c4)CN([C@@H]4CCC(=O)NC4=O)C5=O)CC3)CC2)cc1)c1ccc(B(O)O)cc1)c1ccccc1 [Compound 85, (R,Z)-(4-(1-(4-(2-(4-(4-(2-(2,6-dioxopiperidin-3-yl)-1-oxoisoindolin-5-yl)piperazine-1-carbonyl)piperazin-1-yl)ethoxy)phenyl)-2-phenylbut-1-en-1-yl)phenyl)boronic acid]
< 10 | > 90 | < 10 | < 10 | CC/C(=C(\c1ccc(OCCN2CCN(C(=O)N3CCN(c4ccc5c(c4)CN(C4CCC(=O)NC4=O)C5=O)CC3)CC2)cc1)c1ccc(B(O)O)cc1)c1ccccc1 (stereo not shown) [Compound 86, (E)-(4-(1-(4-(2-(4-(4-(2-(2,6-dioxopiperidin-3-yl)-1-oxoisoindolin-5-yl)piperazine-1-carbonyl)piperazin-1-yl)ethoxy)phenyl)-2-phenylbut-1-en-1-yl)phenyl)boronic acid]
< 10 | > 90 | < 10 | < 10 | CC/C(=C(\c1ccc(OCCN2CCN(C(=O)N3CCN(c4ccc5c(c4)CN([C@H]4CCC(=O)NC4=O)C5=O)CC3)CC2)cc1)c1ccc(B(O)O)cc1)c1ccccc1 [Compound 87, (S,E)-(4-(1-(4-(2-(4-(4-(2-(2,6-dioxopiperidin-3-yl)-1-oxoisoindolin-5-yl)piperazine-1-carbonyl)piperazin-1-yl)ethoxy)phenyl)-2-phenylbut-1-en-1-yl)phenyl)boronic acid]

From patent publication US20220348595A1, “COMPOUNDS AND METHODS FOR THE TARGETED DEGRADATION OF ESTROGEN RECEPTORS” (Endotarget Inc., priority 2021, published 2022)
